How the values were obtained:
[1] = test system: ARH-77 cells; assay: Cell viability assay (CellTiter-Glo), ARH-77; assay type: cell-based; conditions: Homo sapiens, ARH-77, 24 hours incubation, 1% FBS, read-out: Average pIC50 by molecule ARH-77 (converted)
Excerpt: (§1) The effect of various compounds of the invention on the viability of OPM-2, MV-4-11 and ARH-77 cell lines was investigated, using the CTG protocol described below.
(§2) OPM-2 and MV-4-11 cell lines are derived from multiple myeloma and acute myeloid leukaemia, respectively. Both cell lines are described in the literature as MCL-1 dependent lines, as opposed to lymphoblast-like ARH-77 cell line, which is described as independent of MCL-1 (Tron A E et al. Nat Commun. 2018; 9: 5341; Caenepeel S et al. Cancer Discov. 2018 December; 8(12):1582-1597).
(§3) Cells (OPM-2, MV-4-11 or ARH-77) were seeded on […] in a growth medium with FBS reduced to 1%. Next, compound stocks were pre-diluted in DMSO and added directly to the cells growth medium (final DMSO concentration: 0.5%). Compound concentrations used in this assay: 1/3 dilutions starting at 30 uM (9 to 12 points).
(§4) After 24 hours of incubation, cell viability was evaluated using CellTiter-Glo Luminescent Cell Viability Assay (Promega, cat #G7572). Luminescence signal was measured using a CLARIOstar Plus Multi-Mode Microplate Reader (574-590 nm).
(§5) Results were normalized to DMSO control.

[2] = biological target: [MCL-1]-[compound of formula (I)]-[CRBN/DDB1] complex (Homo sapiens, UniProt Q07820+Q96SW2); assay: AlphaLISA dose response ternary complex formation assay; assay type: binding; conditions: read-out: AlphaLISA dose response Average pEC50 by molecule (converted)
Procedure: The effect of the bifunctional compounds of the invention on the formation of a ternary complex composed of [MCL-1]-[compound of formula (I)]-[CRBN/DDB1] was investigated with two methods: AlphaLISA dose response assay or HTRF ternary complex assay.
Two types of protein solution were prepared: • 40 nM biotinylated hMCL-1, 40 μg/ml AlphaScreen Streptavidin-coated Donor Beads in PBS buffer with 0.1% Tween-20 and 1 mM DTT, • 200 nM 6×His-CRBN/Strep-DDB1, 40 μg/ml AlphaLISA Anti-6×His Acceptor beads in PBS buffer with 0.1% Tween-20 and 1 mM DTT.
The prepared solutions were incubated at room temperature for 45 min and then the solution containing the donor beads was mixed with the solution containing the acceptor beads.
The tested compounds were dispensed onto a white 384-well AlphaPlate 384 SW. DMSO was backfilled to all wells, resulting in a final DMSO content of 2%. Wells containing only DMSO served as background. Next, 10 μl of solution with donor and acceptor beads was added to the wells.
The plate was sealed with transparent film and shaken using a VibroTurbulator for 60 see at room temperature, level 3. The plate was then spun down shortly (10 s, 1000 rcf, room temperature) and incubated at 25° C. for 30 min.
The read-out was performed with PerkinElmer Enspire Multimode Plate Reader (method for AlphaLISA 384-well low volume, Filterset: λexc=680 nm, λem=615 nm).
The results were analyzed as follows: • 1) an average of luminescence for background signal was calculated and used as a negative control; • 2) average of the maximum measured luminescence for 233 was calculated and used as an internal positive control; • 3) raw luminescence values were normalized against positive and negative controls; • 4) concentration points above the hook point were excluded; • 5) EC50 and pEC50 values were determined.

[3] = test system: MV-4-11 cells; assay: Cell viability assay (CellTiter-Glo), MV-4-11; assay type: cell-based; conditions: Homo sapiens, MV4-11, 24 hours incubation, 1% FBS, read-out: Average pIC50 by molecule MV-4-11 (converted)
Excerpt: as §1, §2, §3, §4, §5

[MCL-1]-[compound of formula (I)]-[CRBN/DDB1] complex, sequence (Q07820 whole entry): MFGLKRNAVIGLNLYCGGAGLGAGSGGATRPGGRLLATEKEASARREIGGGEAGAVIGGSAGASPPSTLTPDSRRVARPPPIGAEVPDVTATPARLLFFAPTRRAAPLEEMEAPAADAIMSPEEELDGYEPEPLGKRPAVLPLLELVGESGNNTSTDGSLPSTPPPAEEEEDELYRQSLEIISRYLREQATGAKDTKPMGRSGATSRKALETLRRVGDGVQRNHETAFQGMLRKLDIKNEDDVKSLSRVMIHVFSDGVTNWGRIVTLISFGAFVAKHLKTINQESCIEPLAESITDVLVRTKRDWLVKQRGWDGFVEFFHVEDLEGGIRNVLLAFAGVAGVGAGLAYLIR
[MCL-1]-[compound of formula (I)]-[CRBN/DDB1] complex, sequence (Q96SW2 whole entry): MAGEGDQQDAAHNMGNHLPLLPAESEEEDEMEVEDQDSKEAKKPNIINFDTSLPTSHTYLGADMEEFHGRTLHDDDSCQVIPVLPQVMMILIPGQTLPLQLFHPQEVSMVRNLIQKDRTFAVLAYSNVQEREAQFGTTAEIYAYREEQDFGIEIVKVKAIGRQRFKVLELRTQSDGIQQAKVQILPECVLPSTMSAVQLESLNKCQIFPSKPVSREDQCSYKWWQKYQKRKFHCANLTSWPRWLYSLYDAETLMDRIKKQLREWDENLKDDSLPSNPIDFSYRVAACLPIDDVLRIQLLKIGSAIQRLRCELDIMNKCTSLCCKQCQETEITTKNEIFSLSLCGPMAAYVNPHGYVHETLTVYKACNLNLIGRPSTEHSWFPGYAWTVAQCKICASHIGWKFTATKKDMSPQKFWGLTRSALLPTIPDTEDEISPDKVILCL
[MCL-1]-[compound of formula (I)]-[CRBN/DDB1] complex, sequence (Q16531 whole entry partner): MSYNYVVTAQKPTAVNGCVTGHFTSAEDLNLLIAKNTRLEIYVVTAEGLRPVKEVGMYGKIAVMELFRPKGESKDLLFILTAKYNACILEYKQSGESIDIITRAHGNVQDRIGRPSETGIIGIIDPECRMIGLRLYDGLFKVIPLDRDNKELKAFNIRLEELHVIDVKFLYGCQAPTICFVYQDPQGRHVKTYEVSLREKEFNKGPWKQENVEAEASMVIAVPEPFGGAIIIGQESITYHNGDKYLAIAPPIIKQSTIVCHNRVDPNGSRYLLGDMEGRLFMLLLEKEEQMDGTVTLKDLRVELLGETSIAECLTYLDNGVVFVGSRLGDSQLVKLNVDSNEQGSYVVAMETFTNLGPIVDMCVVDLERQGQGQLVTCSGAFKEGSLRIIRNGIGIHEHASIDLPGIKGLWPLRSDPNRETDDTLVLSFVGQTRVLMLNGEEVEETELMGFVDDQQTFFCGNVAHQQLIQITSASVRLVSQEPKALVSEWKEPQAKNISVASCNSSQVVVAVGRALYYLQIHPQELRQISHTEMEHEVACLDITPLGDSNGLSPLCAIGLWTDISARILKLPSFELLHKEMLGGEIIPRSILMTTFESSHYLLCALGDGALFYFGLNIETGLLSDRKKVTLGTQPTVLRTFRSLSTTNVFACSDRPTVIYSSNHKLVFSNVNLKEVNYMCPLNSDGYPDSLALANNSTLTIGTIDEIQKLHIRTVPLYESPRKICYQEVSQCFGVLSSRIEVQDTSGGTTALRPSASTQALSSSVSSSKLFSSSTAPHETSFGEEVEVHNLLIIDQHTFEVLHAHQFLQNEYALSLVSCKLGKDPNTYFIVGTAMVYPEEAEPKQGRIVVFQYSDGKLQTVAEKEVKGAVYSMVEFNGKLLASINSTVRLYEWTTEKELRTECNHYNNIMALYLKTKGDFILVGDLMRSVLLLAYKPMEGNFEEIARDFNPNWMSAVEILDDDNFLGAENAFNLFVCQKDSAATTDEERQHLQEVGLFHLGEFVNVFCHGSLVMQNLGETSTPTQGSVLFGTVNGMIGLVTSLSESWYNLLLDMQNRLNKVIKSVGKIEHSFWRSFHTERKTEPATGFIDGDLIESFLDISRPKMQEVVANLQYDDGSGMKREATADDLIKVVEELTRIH

EC50 [2]	IC50 [3]	Compound	IC50 [1]
< 100 nM	≤ 31.6 nM	Cc1nn(C)c(C)c1-c1c(Cl)ccc2c(CCCOc3cccc4cc(F)ccc34)c(C(=O)O)n(CCN3CCN(C(=O)COc4cccc5c4CN([C@H]4CCC(=O)NC4=O)C5=O)CC3)c12 (single isomer, unassigned) [Compound 296]	> 10000 nM
< 1000 nM	≤ 100 nM	Cc1nn(C)c(C)c1-c1c(Cl)ccc2c(CCCOc3cccc4cc(F)ccc34)c(C(=O)O)n(CCN3CCN(C(=O)[C@@H](C)Oc4cccc5c4C(=O)N([C@@H]4CCC(=O)NC4=O)C5=O)CC3)c12 (single isomer, unassigned) [Compound 316]	> 3160 nM
< 100 nM	≤ 31.6 nM	Cc1nn(C)c(C)c1-c1c(Cl)ccc2c(CCCOc3cccc4cc(F)ccc34)c(C(=O)O)n(CCN3CCN(C(=O)[C@@H](C)Oc4cccc5c4C(=O)N([C@H]4CCC(=O)NC4=O)C5=O)CC3)c12 (single isomer, unassigned) [Compound 317]	> 3160 nM
< 100 nM	≤ 1000 nM	COc1cc(OCCCc2c(C(=O)O)n(CCN3CCN(C(=O)COc4cccc5c4C(=O)N(C4CCC(=O)NC4=O)C5=O)CC3)c3c(-c4c(C)nn(C)c4C)c(Cl)ccc23)c2ccccc2c1 (stereo not drawn) [Compound 218, 6-chloro-1-(2-(4-(2-((2-(2,6-dioxopiperidin-3-yl)-1,3-dioxoisoindolin-4-yl)oxy)acetyl)piperazin-1-yl)ethyl)-3-(3-((3-methoxynaphthalen-1-yl)oxy)propyl)-7-(1,3,5-trimethyl-1H-pyrazol-4-yl)-1H-indole-2-carboxylic acid]	> 10000 nM
< 100 nM	≤ 316 nM	Cc1nn(C)c(C)c1-c1c(Cl)ccc2c(CCCOc3cccc4ccccc34)c(C(=O)O)n(CCN3CCN(C(=O)COc4cccc5c4CN(C4CCC(=O)NC4=O)C5=O)C4CC43)c12 (stereo not drawn) [Compound 222, 6-chloro-1-{2-[5-(2-{[2-(2,6-dioxopiperidin-3-yl)-1-oxo-2,3-dihydro-1H-isoindol-4-yl]oxy}acetyl)-2,5-diazabicyclo[4.1.0]heptan-2-yl]ethyl}-3-[3-(naphthalen-1-yloxy)propyl]-7-(1,3,5-trimethyl-1H-pyrazol-4-yl)-1H-indole-2-carboxylic acid]	> 10000 nM
< 100 nM	≤ 316 nM	Cc1nn(C)c(C)c1-c1c(Cl)ccc2c(CCCOc3cccc4ccccc34)c(C(=O)O)n(CCC3CCN(C(=O)COc4cccc5c4CN(C4CCC(=O)NC4=O)C5=O)CC3)c12 (stereo not drawn) [Compound 223, 6-chloro-1-{2-[1-(2-{[2-(2,6-dioxopiperidin-3-yl)-1-oxo-2,3-dihydro-1H-isoindol-4-yl]oxy}acetyl)piperidin-4-yl]ethyl}-3-[3-(naphthalen-1-yloxy)propyl]-7-(1,3,5-trimethyl-1H-pyrazol-4-yl)-1H-indole-2-carboxylic acid]	> 10000 nM
< 100 nM	≤ 316 nM	Cc1nn(C)c(C)c1-c1c(Cl)ccc2c(CCCOc3cccc4ccccc34)c(C(=O)O)n(CC[N+]3([O-])CCN(C(=O)COc4cccc5c4CN(C4CCC(=O)NC4=O)C5=O)CC3)c12 (stereo not drawn) [Compound 224, 1-(2-(2-carboxy-6-chloro-3-(3-(naphthalen-1-yloxy)propyl)-7-(1,3,5-trimethyl-1H-pyrazol-4-yl)-1H-indol-1-yl)ethyl)-4-(2-((2-(2,6-dioxopiperidin-3-yl)-1-oxoisoindolin-4-yl)oxy)acetyl)piperazine 1-oxide]	> 10000 nM
< 100 nM	≤ 316 nM	Cc1nn2c(c1-c1c(F)ccc3c(CCCOc4cccc5cc(F)ccc45)c(C(=O)O)n(CCN4CCN(C(=O)COc5cccc6c5CN(C5CCC(=O)NC5=O)C6=O)CC4)c13)CCC2 (stereo not drawn) [Compound 225, 1-(2-(4-(2-((2-(2,6-dioxopiperidin-3-yl)-1-oxoisoindolin-4-yl)oxy)acetyl)piperazin-1-yl)ethyl)-6-fluoro-3-(3-((6-fluoronaphthalen-1-yl)oxy)propyl)-7-(2-methyl-5,6-dihydro-4H-pyrrolo[1,2-b]pyrazol-3-yl)-1H-indole-2-carboxylic acid]	> 10000 nM
< 100 nM	≤ 100 nM	Cc1nn2c(c1-c1c(F)ccc3c(CCCOc4cccc5cc(F)ccc45)c(C(=O)O)n(CCN4CCN(C(=O)COc5cccc6c5CN(C5CCC(=O)NC5=O)C6=O)CC4)c13)COCC2 (stereo not drawn) [Compound 226, 1-{2-[4-(2-{[2-(2,6-dioxopiperidin-3-yl)-1-oxo-2,3-dihydro-1H-isoindol-4-yl]oxy}acetyl)piperazin-1-yl]ethyl}-6-fluoro-3-{3-[(6-fluoronaphthalen-1-yl)oxy]propyl}-7-{2-methyl-4H,6H,7H-pyrazolo[3,2-c][1,4]oxazin-3-yl}-1H-indole-2-carboxylic acid]	> 10000 nM
< 100 nM	≤ 100 nM	Cc1nn(C)c(C)c1-c1c(Cl)ccc2c(CCCOc3cccc4cc(F)ccc34)c(C(=O)O)n(CCN3CCN(C(=O)Cn4c(C)nc5c(C(=O)NC6CCC(=O)NC6=O)ccc(Cl)c54)CC3)c12 (stereo not drawn) [Compound 271, 6-Chloro-1-(2-(4-(2-(7-chloro-4-((2,6-dioxopiperidin-3-yl)carbamoyl)-2-methyl-1H-benzo[d]imidazol-1-yl)acetyl)piperazin-1-yl)ethyl)-3-(3-((6-fluoronaphthalen-1-yl)oxy)propyl)-7-(1,3,5-trimethyl-1H-pyrazol-4-yl)-1H-indole-2-carboxylic acid]	> 10000 nM
< 100 nM	≤ 100 nM	COc1ccc(C(=O)NC2CCC(=O)NC2=O)c2nc(C)n(CC(=O)N3CCN(CCn4c(C(=O)O)c(CCCOc5cccc6cc(F)ccc56)c5ccc(Cl)c(-c6c(C)nn(C)c6C)c54)CC3)c12 (stereo not drawn) [Compound 272, 6-Chloro-1-(2-(4-(2-(4-((2,6-dioxopiperidin-3-yl)carbamoyl)-7-methoxy-2-methyl-1H-benzo[d]imidazol-1-yl)acetyl)piperazin-1-yl)ethyl)-3-(3-((6-fluoronaphthalen-1-yl)oxy)propyl)-7-(1,3,5-trimethyl-1H-pyrazol-4-yl)-1H-indole-2-carboxylic acid]	> 10000 nM
< 10 nM	≤ 316 nM	Cc1nn(C)c(C)c1-c1c(Cl)ccc2c(CCCOc3cccc4cc(F)ccc34)c(C(=O)O)n(CCN3CCN(C(=O)Cn4c(C)nc5c(C(=O)NC6CCC(=O)NC6=O)cc(Br)cc54)CC3)c12 (stereo not drawn) [Compound 273, 1-{2-[4-(2-{6-Bromo-4-[(2,6-dioxopiperidin-3-yl)carbamoyl]-2-methyl-1H-1,3-benzodiazol-1-yl}acetyl)piperazin-1-yl]ethyl}-6-chloro-3-{3-[(6-fluoronaphthalen-1-yl)oxy]propyl}-7-(1,3,5-trimethyl-1H-pyrazol-4-yl)-1H-indole-2-carboxylic acid]	> 10000 nM
< 10 nM	≤ 100 nM	Cc1cc(C(=O)NC2CCC(=O)NC2=O)c2nc(C)n(CC(=O)N3CCN(CCn4c(C(=O)O)c(CCCOc5cccc6cc(F)ccc56)c5ccc(Cl)c(-c6c(C)nn(C)c6C)c54)CC3)c2c1 (stereo not drawn) [Compound 274, 6-Chloro-1-(2-(4-(2-(4-((2,6-dioxopiperidin-3-yl)carbamoyl)-2,6-dimethyl-1H-benzo[d]imidazol-1-yl)acetyl)piperazin-1-yl)ethyl)-3-(3-((6-fluoronaphthalen-1-yl)oxy)propyl)-7-(1,3,5-trimethyl-1H-pyrazol-4-yl)-1H-indole-2-carboxylic acid]	> 10000 nM

From patent US20240294499A1, “TARGETED PROTEIN DEGRADATION USING BIFUNCTIONAL COMPOUNDS THAT BIND UBIQUITIN LIGASE AND TARGET MCL-1 PROTEIN” (Captor Therapeutics S.A., priority 2021, published 2024)
